Test results as given in PMC10360995, “Discovery of 3-((3-amino-1H-indazol-4-yl)ethynyl)-N-(4-((4-ethylpiperazin-1-yl)methyl)-3-(trifluoromethyl)phenyl)benzamide (AKE-72), a potent Pan-BCR-ABL inhibitor including the T315I gatekeeper resistant mutant” (Journal of Enzyme Inhibition and Medicinal Chemistry, 2023).
Read-outs that look alike come from different tables or passages of the source.

Assays:
CCRF-CEM = test: NCI SRB anti-leukemic assay
ABL^M351T = ABL^M351T (Homo sapiens, UniProt P00519, M351T); test: ABL mutant enzymatic assay; assay type: biochemical; settings: 10-dose, 3-fold dilution from 20 μM, 10 μM ATP
From the text: (§1) Compound 5 (AKE-72) was further profiled against a number of clinically relevant ABL mutants, including E255K, F317I, H396P, M351T, and Q252H (Table 2). This outcome confirmed the ability of compound 5 to potently suppress the activity of the clinically relevant ABL mutants in single-digit nanomolar IC50 values.

ABL^E255K = ABL^E255K (Homo sapiens, UniProt P00519, E255K); test: ABL mutant enzymatic assay; assay type: biochemical; settings: 10-dose, 3-fold dilution from 20 μM, 10 μM ATP
From the text: as §1

ABL^Q252H = ABL^Q252H (Homo sapiens, UniProt P00519, Q252H); test: ABL mutant enzymatic assay; assay type: biochemical; settings: 10-dose, 3-fold dilution from 20 μM, 10 μM ATP
From the text: as §1

ABL^F317I = ABL^F317I (Homo sapiens, UniProt P00519, F317I); test: ABL mutant enzymatic assay; assay type: biochemical; settings: 10-dose, 3-fold dilution from 20 μM, 10 μM ATP
From the text: as §1

ABL^H396P = ABL^H396P (Homo sapiens, UniProt P00519, H396P); test: ABL mutant enzymatic assay; assay type: biochemical; settings: 10-dose, 3-fold dilution from 20 μM, 10 μM ATP
From the text: as §1

SR = test: NCI SRB anti-leukemic assay
HL-60(TB) [1] = settings: five-dose assay
RET = RET (Homo sapiens, UniProt P07949); test: Kinase panel profiling at 50 nM; assay type: biochemical; settings: range given for ten kinases together
Protocol: (§2) Figure 3. Enzyme inhibition percentage (relative to DMSO controls) of compound 5 (0.05 µM) against a panel of 18 kinases.

FGFR1 = FGFR1 (Homo sapiens, UniProt P11362); test: Kinase panel profiling at 50 nM; assay type: biochemical; settings: range given for ten kinases together
Protocol: as §2

FMS = FMS (Homo sapiens, UniProt P07333); test: Kinase panel profiling at 50 nM; assay type: biochemical; settings: range printed for c-Src and FMS together
Protocol: as §2

c-Kit = c-Kit (Homo sapiens, UniProt P10721); test: Kinase panel profiling at 50 nM; assay type: biochemical; settings: range given for ten kinases together
Protocol: as §2

YES = YES (Homo sapiens, UniProt P07947); test: Kinase panel profiling at 50 nM; assay type: biochemical; settings: range given for ten kinases together
Protocol: as §2

[2] = system: the other investigated kinases (panel of 18 kinases); test: Kinase panel profiling at 50 nM; assay type: biochemical
Protocol: as §2

LYN = LYN (Homo sapiens, UniProt P07948); test: Kinase panel profiling at 50 nM; assay type: biochemical; settings: range given for ten kinases together
Protocol: as §2

VEGFR2 = VEGFR2 (Homo sapiens, UniProt P35968); test: Kinase panel profiling at 50 nM; assay type: biochemical; settings: range given for ten kinases together
Protocol: as §2

FYN = FYN (Homo sapiens, UniProt P06241); test: Kinase panel profiling at 50 nM; assay type: biochemical; settings: range given for ten kinases together
Protocol: as §2

c-Src = c-Src (Homo sapiens, UniProt P12931); test: Kinase panel profiling at 50 nM; assay type: biochemical; settings: range printed for c-Src and FMS together
Protocol: as §2

LCK = LCK (Homo sapiens, UniProt P06239); test: Kinase panel profiling at 50 nM; assay type: biochemical; settings: range given for ten kinases together
Protocol: as §2

PDGFRβ = PDGFRβ (Homo sapiens, UniProt P09619); test: Kinase panel profiling at 50 nM; assay type: biochemical; settings: range given for ten kinases together
Protocol: as §2

FLT3 = FLT3 (Homo sapiens, UniProt P36888); test: Kinase panel profiling at 50 nM; assay type: biochemical; settings: range given for ten kinases together
Protocol: as §2

CYP2D6 = biological target: T1, CYP2D6 (Homo sapiens, UniProt P10635); test: Cytochrome P450 inhibition assay (Vivid CYP450 kit); assay type: in vitro ADME
T1 construct: purchased ThermoFisher (Vivid CYP450 screening kit), run at RBC
From the text: (§3) Azole derivatives are well known for their ability to inhibit cytochrome P450 isozymes.
(§4) 1.8. Cytochrome P450 Assay
(§5) The binding site was defined based

CYP2C9 = biological target: T2, CYP2C9 (Homo sapiens, UniProt P11712); test: as above; assay type: in vitro ADME; settings: recombinant CYP2C9 (Vivid CYP450 screening kit), single-dose duplicate, read-out: CYP inhibition % CYP2C9
T2 construct: purchased ThermoFisher (Vivid CYP450 screening kit), run at RBC
From the text: as §3, §4, §5

CYP3A4 = biological target: T3, CYP3A4 (Homo sapiens, UniProt P08684); test: as above; assay type: in vitro ADME; settings: single-dose duplicate, read-out: CYP inhibition % CYP3A4
T3 construct: purchased ThermoFisher (Vivid CYP450 screening kit), run at RBC
From the text: as §3, §4, §5

CYP1A2 = biological target: T4, CYP1A2 (Homo sapiens, UniProt P05177); test: as above; assay type: in vitro ADME
T4 construct: purchased ThermoFisher (Vivid CYP450 screening kit), run at RBC
From the text: as §3, §4, §5

HL-60(TB) [3] = test: cells; settings: Homo sapiens
K562 (Bcr-Abl positive) = test: Cellular proliferation assay; assay type: cell-based; settings: Homo sapiens, K562, read-out: GI50 K562 (Bcr-Abl positive)
From the text: (§6) We also tested AKE-72 against BCR-ABL-positive and BCR-ABL-negative cell lines.
as §4, §5

Ba/F3 mouse pro-B cells = test: Cellular proliferation assay; assay type: cell-based; settings: BaF3, read-out: GI50 Ba/F3 (mouse pro-B cell)
From the text: as §6, §4, §5

U937 (Bcr-Abl negative) = test: Cellular proliferation assay; assay type: cell-based; settings: Homo sapiens, U-937, read-out: GI50 U937 (Bcr-Abl negative)
From the text: as §6, §4, §5

RPMI-8226 = test: NCI SRB anti-leukemic assay
K-562 = test: NCI SRB anti-leukemic assay
MOLT-4 = test: NCI SRB anti-leukemic assay
BCR-ABL^WT = BCR-ABL^WT (Homo sapiens, UniProt P00519); test: BCR-ABL WT kinase inhibition assay; assay type: biochemical

T1 sequence (P10635 whole entry): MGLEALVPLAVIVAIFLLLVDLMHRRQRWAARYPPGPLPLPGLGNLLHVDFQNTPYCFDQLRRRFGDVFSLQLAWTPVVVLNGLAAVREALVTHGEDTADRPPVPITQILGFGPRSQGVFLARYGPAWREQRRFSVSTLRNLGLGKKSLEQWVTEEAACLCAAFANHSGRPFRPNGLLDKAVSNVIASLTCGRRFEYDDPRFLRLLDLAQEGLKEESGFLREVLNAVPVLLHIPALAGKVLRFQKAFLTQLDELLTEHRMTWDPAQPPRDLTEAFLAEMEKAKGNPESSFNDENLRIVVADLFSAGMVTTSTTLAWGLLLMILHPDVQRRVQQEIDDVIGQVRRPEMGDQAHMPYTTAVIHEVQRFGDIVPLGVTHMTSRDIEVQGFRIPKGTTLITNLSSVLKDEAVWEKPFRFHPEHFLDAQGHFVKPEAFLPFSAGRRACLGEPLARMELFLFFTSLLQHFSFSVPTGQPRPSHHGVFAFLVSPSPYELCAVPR
T3 sequence (P08684 whole entry): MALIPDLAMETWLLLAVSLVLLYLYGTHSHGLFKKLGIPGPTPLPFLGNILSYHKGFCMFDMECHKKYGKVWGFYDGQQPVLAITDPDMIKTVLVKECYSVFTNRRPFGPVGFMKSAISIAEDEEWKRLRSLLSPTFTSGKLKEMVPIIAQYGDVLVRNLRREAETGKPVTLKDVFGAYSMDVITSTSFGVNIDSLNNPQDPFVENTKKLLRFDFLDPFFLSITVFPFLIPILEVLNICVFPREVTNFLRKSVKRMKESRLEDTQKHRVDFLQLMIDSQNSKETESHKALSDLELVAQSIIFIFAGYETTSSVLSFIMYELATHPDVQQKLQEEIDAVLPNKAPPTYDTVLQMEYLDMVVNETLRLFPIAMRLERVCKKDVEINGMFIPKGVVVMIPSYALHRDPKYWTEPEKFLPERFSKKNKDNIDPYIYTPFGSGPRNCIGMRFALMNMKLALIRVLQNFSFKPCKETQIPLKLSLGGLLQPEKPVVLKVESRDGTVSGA
T4 sequence (P05177 whole entry): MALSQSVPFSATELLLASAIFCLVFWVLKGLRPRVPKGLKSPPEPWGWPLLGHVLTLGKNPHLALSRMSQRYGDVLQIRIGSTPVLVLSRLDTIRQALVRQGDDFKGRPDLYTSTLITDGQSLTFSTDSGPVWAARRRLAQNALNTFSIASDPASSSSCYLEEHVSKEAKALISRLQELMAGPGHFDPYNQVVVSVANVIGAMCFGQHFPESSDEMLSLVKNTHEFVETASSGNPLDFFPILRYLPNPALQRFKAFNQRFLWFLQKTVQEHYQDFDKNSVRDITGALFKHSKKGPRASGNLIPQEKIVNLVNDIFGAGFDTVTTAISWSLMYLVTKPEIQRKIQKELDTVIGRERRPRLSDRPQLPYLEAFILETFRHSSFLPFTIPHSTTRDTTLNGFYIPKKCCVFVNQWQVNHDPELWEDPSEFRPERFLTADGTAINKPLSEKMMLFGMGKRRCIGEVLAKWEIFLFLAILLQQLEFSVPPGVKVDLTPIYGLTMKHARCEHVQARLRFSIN
LYN, sequence (P07948 whole entry): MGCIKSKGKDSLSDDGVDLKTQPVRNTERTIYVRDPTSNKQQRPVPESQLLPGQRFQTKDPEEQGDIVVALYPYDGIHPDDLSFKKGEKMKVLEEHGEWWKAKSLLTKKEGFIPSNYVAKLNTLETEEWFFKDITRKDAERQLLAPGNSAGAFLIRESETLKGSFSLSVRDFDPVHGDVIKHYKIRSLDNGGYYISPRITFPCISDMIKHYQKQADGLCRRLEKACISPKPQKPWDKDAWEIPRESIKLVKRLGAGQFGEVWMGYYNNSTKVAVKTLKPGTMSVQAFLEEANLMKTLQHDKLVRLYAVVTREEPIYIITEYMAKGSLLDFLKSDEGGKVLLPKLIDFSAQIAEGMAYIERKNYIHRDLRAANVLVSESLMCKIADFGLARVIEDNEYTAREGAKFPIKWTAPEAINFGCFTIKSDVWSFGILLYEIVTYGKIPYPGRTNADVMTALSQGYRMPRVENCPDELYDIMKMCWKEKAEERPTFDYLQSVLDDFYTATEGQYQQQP
FGFR1, sequence (P11362 22-822): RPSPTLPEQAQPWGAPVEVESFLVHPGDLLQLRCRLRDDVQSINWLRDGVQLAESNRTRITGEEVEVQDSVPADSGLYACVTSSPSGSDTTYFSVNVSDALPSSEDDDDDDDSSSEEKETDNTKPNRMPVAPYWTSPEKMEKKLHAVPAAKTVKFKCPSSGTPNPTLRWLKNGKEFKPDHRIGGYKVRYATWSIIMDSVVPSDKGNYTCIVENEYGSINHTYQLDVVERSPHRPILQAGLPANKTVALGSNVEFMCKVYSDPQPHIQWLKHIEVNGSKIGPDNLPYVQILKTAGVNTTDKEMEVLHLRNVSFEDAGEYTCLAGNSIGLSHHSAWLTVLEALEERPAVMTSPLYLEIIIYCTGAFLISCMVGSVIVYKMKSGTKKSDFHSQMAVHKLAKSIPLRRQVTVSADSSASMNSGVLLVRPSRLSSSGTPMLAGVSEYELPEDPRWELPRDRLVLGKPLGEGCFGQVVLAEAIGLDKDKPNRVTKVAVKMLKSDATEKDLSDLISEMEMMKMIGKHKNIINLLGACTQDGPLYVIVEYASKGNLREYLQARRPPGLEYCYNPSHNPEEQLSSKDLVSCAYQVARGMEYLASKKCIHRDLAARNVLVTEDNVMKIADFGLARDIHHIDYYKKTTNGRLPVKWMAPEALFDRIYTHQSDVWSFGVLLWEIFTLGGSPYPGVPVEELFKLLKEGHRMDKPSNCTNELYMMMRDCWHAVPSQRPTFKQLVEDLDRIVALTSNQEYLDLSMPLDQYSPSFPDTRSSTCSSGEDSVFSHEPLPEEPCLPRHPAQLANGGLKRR
RET, sequence (P07949 29-1114): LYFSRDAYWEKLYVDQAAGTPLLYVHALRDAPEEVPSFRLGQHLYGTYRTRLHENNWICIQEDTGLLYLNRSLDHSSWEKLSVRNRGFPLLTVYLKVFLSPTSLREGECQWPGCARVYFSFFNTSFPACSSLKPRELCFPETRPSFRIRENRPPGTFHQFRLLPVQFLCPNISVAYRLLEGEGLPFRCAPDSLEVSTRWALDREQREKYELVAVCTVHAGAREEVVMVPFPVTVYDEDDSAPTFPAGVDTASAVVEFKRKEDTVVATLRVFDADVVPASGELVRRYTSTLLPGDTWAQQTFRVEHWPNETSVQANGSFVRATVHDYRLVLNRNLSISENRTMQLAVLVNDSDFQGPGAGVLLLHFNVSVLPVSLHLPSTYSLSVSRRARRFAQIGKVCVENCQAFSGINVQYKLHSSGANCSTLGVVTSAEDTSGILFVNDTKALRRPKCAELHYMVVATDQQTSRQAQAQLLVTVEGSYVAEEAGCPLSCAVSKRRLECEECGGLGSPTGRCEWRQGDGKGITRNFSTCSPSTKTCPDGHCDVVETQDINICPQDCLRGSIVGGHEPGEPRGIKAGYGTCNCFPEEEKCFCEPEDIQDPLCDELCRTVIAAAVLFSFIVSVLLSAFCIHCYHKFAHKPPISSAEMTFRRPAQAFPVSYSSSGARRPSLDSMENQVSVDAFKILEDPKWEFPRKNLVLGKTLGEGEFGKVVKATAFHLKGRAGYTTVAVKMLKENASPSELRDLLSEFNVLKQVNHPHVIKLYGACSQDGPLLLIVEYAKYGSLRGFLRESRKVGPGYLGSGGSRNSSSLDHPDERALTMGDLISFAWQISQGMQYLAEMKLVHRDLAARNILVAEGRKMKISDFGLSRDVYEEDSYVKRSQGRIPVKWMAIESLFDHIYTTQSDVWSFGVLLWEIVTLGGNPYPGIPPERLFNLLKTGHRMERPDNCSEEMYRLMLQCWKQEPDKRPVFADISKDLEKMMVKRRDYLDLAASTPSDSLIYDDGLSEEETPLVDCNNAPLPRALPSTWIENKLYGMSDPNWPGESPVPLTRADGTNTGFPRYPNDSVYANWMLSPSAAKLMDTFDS
FLT3, sequence (P36888 27-993): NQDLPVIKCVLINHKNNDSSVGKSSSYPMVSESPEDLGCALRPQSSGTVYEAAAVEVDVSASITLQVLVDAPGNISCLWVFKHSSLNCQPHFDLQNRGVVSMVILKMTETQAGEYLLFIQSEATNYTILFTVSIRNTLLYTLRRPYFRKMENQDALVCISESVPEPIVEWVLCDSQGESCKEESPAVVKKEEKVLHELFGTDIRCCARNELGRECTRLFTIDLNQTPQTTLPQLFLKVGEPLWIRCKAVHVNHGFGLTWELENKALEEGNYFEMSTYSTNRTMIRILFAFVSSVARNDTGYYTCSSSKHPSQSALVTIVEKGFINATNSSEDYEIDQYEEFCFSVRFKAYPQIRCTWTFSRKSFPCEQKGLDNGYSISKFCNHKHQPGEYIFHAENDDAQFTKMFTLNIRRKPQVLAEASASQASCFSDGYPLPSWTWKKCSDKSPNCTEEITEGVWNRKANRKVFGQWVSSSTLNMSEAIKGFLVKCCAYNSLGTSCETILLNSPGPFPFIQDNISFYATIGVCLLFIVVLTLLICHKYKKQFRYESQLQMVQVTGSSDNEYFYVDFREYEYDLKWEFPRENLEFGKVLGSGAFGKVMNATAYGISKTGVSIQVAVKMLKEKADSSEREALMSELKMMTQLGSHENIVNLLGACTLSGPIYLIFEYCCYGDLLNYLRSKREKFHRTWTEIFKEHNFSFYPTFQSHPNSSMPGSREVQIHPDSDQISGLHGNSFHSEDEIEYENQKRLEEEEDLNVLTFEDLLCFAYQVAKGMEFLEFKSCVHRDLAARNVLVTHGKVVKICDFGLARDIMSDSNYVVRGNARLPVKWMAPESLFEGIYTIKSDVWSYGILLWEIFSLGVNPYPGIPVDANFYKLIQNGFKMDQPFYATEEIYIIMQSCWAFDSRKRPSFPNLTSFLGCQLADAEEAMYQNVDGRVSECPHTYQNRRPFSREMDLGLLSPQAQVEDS

CCN1CCN(Cc2ccc(NC(=O)c3cccc(C#Cc4cccc5[nH]nc(N)c45)c3)cc2C(F)(F)F)CC1 [Compound 5, 3-((3-amino-1H-indazol-4-yl)ethynyl)-N-(4-((4-ethylpiperazin-1-yl)methyl)-3-(trifluoromethyl)phenyl)benzamide]
GI50 (CCRF-CEM; Homo sapiens, CCRF-CEM, read-out: GI50 CCRF-CEM): 436 nM | CC50 (CCRF-CEM; Homo sapiens, CCRF-CEM, read-out: LC50 (half-maximal lethal concentration) CCRF-CEM): > 100000 nM | TGI (total growth inhibition) CCRF-CEM (CCRF-CEM; five-dose assay): 3040 nM | IC50 (ABL^M351T): 3.44 nM | IC50 (ABL^E255K): 8.98 nM | IC50 (ABL^Q252H): 3.88 nM | IC50 (ABL^F317I): 3.12 nM | IC50 (ABL^H396P): < 1.02 nM | GI50 (SR; Homo sapiens, SR, read-out: GI50 SR): 238 nM | CC50 (SR; Homo sapiens, SR, read-out: LC50 (half-maximal lethal concentration) SR): > 100000 nM | TGI (total growth inhibition) SR (SR; five-dose assay): 732 nM | TGI (total growth inhibition) HL-60(TB) (HL-60(TB) [1]): 1040 nM | inhibition at 0.05 µM (RET): 83.9 to 99.3% | inhibition at 0.05 µM (FGFR1): 83.9 to 99.3% | inhibition at 0.05 µM (FMS): 64.5 to 73% | inhibition at 0.05 µM (c-Kit): 83.9 to 99.3% | inhibition at 0.05 µM (YES): 83.9 to 99.3% | inhibition of the other investigated kinases [2]: no inhibition | inhibition at 0.05 µM (LYN): 83.9 to 99.3% | inhibition at 0.05 µM (VEGFR2): 83.9 to 99.3% | inhibition at 0.05 µM (FYN): 83.9 to 99.3% | inhibition at 0.05 µM (c-Src): 64.5 to 73% | inhibition at 0.05 µM (LCK): 83.9 to 99.3% | inhibition at 0.05 µM (PDGFRβ): 83.9 to 99.3% | inhibition at 0.05 µM (FLT3): 83.9 to 99.3% | IC50 (CYP2D6): > 10000 nM | inhibition at 10 µM (CYP2D6; human, recombinant CYP2D6 (Vivid CYP450 screening kit), 10 µM, single-dose duplicate, read-out: CYP inhibition % CYP2D6): 13.92 ± 0.06% | inhibition at 10 µM (CYP2C9): 50.67 ± 0.075% | inhibition at 10 µM (CYP3A4; Vivid CYP450 screening kit (CYP3A4 isozyme)): 90.6% | inhibition at 10 µM (CYP3A4; recombinant CYP3A4 (Vivid CYP450 screening kit)): 96.57 ± 0.065% | IC50 (CYP1A2): > 10000 nM | inhibition at 10 µM (CYP1A2; human, recombinant CYP1A2 (Vivid CYP450 screening kit), 10 µM, single-dose duplicate, read-out: CYP inhibition % CYP1A2): 9.88 ± 0.09% | GI50 (HL-60(TB) [3]; HL-60, read-out: GI50 HL-60(TB)): 97.9 nM | CC50 (HL-60(TB) [3]; HL-60, read-out: LC50 (half-maximal lethal concentration) HL-60(TB)): 5170 nM | GI50 (K562 (Bcr-Abl positive)): 5.9 nM | GI50 (Ba/F3 mouse pro-B cells): 4000 ± 1170 nM | GI50 (U937 (Bcr-Abl negative)): 1900 ± 61 nM | GI50 (RPMI-8226; Homo sapiens, RPMI-8226, read-out: GI50 RPMI-8226): 488 nM | CC50 (RPMI-8226; Homo sapiens, RPMI-8226, read-out: LC50 (half-maximal lethal concentration) RPMI-8226): > 100000 nM | TGI (total growth inhibition) RPMI-8226 (RPMI-8226; five-dose assay): 2660 nM | GI50 (K-562; Homo sapiens, K562, read-out: GI50 K-562): < 10 nM | CC50 (K-562; Homo sapiens, K562, read-out: LC50 (half-maximal lethal concentration) K-562): 5250 nM | TGI (total growth inhibition) K-562 (K-562; five-dose assay): 154 nM | TGI K-562 (K-562; five-dose assay): 154 nM | GI50 (MOLT-4; Homo sapiens, MOLT-4, read-out: GI50 MOLT-4): 227 nM | CC50 (MOLT-4; Homo sapiens, MOLT-4, read-out: LC50 (half-maximal lethal concentration) MOLT-4): 5130 nM | TGI (total growth inhibition) MOLT-4 (MOLT-4; five-dose assay): 1160 nM | IC50 (BCR-ABL^WT; 10-dose duplicate, 3-fold serial dilution, 10 µM ATP): < 0.51 nM | fold superior potency against BCR-ABL^WT versus lead indazole II (BCR-ABL^WT; relative to II): > 300 folds
